# Reference: article PMC11933534, “Favipiravir induces HuNoV viral mutagenesis and infectivity loss with clinical improvement in immunocompromised patients” (Clinical Immunology (Orlando, Fla.), 2024)
# Where “and” joins values, the source holds several entries; their conditions need not be identical. Equal entries are not always repeated. Where two headings read alike, the source gives them in different places.
# Legend:
# HuNoV [1] = experiment: Clinical response of immunocompromised patients with chronic HuNoV infection; assay type: in vivo, human
# Method: The Drugs and Therapeutics Committees at Great Ormond Street Hospital for Children, Great North Children's Hospital and Royal Free London NHS Trust approved treatment with favipiravir +/− nitazoxanide in four immunocompromised patients with life-threatening/severe chronic HuNoV infections. After obtaining informed consent, microbiological and pharmacological monitoring was performed. Informed consent was also obtained for microbiological monitoring in 2 untreated patients with HuNoV infections. Residual diagnostic viral samples were released for whole-genome sequencing through the UCL/UCLH Pathogen Biobank National Research Ethics Service Committee London Fulham (reference: [12]/LO/1089). For P1 specifically, residual stool samples were released for in vivo infectivity evaluation in the zebrafish model with research ethics approval from London Bloomsbury Research Ethics Committee (reference: 07/Q0508/43). This allows the use of pseudonymised residual diagnostic samples for research. An additional stool sample positive for HuNoV from the existing collection of samples of the University Hospital of Leuven (Belgium) was used (reference: G-2021–4376). Informed consent was obtained from the patient. […]
# HuNoV [2] = experiment: Stool HuNoV viral load (RT-qPCR Ct) in treated patients; assay type: in vivo, human
# zebrafish larvae = experiment: Toxicity analysis in zebrafish larvae; assay type: in vivo; conditions: 25 ng favipiravir or 4 ng tizoxanide, drug administered alone
# Method: (§1) First, compounds were dissolved in 100% DMSO (spectroscopy grade). To determine the correct dose for pericardial injections in zebrafish larvae of all compounds (i.e. favipiravir, tizoxanide and their 1:1 combination), a weight-dependent conversion was applied. For this purpose, the optimized and increased clinical dose of 400 mg favipiravir TDS and 200 mg tizoxanide BD was used. To ensure the weight-converted dose was not toxic for zebrafish larvae of 3 days post fertilization, a toxicity analysis was performed. […] The following parameters were investigated: touch response, morphology, posture, oedema, signs of necrosis, swim bladder and heartbeat.
# [3] = Favipiravir plasma trough level monitoring in patients (UPLC-MS/MS); assay type: in vivo, human
# Method: Plasma was isolated from patient blood samples collected in EDTA. Frozen plasma samples were shipped to Laboratoire de Pharmacocinétique-Toxicologie, […] La Timone, Aix-Marseille Université, Marseille, France for favipiravir concentration analysis. The quantification of favipiravir in thawed plasma samples was performed by ultra-performance liquid chromatography coupled with tandem mass spectrometry (UPLC-MS/MS) method (UPLC-TQD, Waters, USA) with a lower limit of quantification of 0.5 μg/mL [34]. Validation of the assay was performed in accordance with the 2012 EMA guidelines and the ISO15189 guidelines. Model parameter estimation, model simulation properties (visual predictive check) and dose simulations were assessed using […]2 (2.0.6) and rxode2 (2.0.7) in R (4.2.0), as described elsewhere.
# HuNoV [4] = tested on: HuNoV; design: method as in PMID 30485769; conditions: P2 (CVID); favipiravir 1200 mg 12-hourly, three courses; cited from earlier work
# HuNoV [5] = experiment: HuNoV whole-genome sequencing of longitudinal patient stool samples; design: species or system human
# Excerpt: Stool samples were collected from the patients. Full-length HuNoV genome sequences were obtained from samples using SureSelectXT target enrichment and Illumina sequencing. For each patient, a unique patient reference was generated by mapping the remaining reads of the first sample to the genotype reference from GenBank using bwa-mem. Reads from the subsequent samples of the same patient were mapped to this patient reference. Consensus sequences were aligned using MAFFT [58]. Only genomes with >80% genome coverage and a mean read depth of 100 or above were included in downstream analysis. Minority allele variants with a frequency of above 2% and a minimum of 2 supporting reads were identified at sites with a read depth of ≥5 using VarScan. For plotting polymorphism frequency, we have determined Watterson's theta which normalises for reading depth. Maximum likelihood phylogenies were constructed using RAxML [13], with the GTR model and 1000 bootstrap replicates. General data processing was carried out in R 3.6.1 using Rstudio 1.2. with the tidyverse family of packages (v1.2.1). Figures were made using the ggplot2 package.
# HuNoV GII.4 Sydney[P16] = experiment: Antiviral treatment of HuNoV-infected zebrafish larvae (viral RNA by RT-qPCR); assay type: in vivo; conditions: for Reduction in viral load with post-treatment sample: favipiravir 25 ng, inoculum P1 SS F carrying RdRp A44S change
# Method: as §1
# Zebrafish larvae were anesthetized and positioned as described previously, in short: zebrafish larvae of 3 days post fertilization were anesthetized and transferred to an agarose mold to position them on their dorsal side with the yolk facing upward. In every experiment, the injection needle was calibrated to ensure the precision of the injection volume. Microinjection was performed using an M3301R Manual Micromanipulator (WPI, Friedberg, Germany) and a FemtoJet 4i pressure microinjector (Eppendorf, Hamburg, Germany). Compound-treated zebrafish larvae received a 1 nL (1.5 nL in case of the combination treatment) injection of compound in the pericardial cavity, while negative control zebrafish were injected with an equal volume of DMSO. Subsequently, the zebrafish larvae received an injection of 3 nL virus in the yolk. After both injections, zebrafish larvae were transferred to 6-well plates with Danieau's solution and further maintained in an incubator with a 14/10 h light/dark cycle at 32 °C.
# Zebrafish larvae were homogenized (Precellys 24, Bertin Technologies, Montigny-le-Bretonneux, France), the homogenates were cleared by centrifugation (5 min, 9000 g), and RNA was extracted using the Direct-zol RNA kit (Zymo Research, Irvine, CA, USA), according to the manufacturer's protocol. RNA levels were quantified with a one-step RT-qPCR (iTaq Universal Probes One-Step Kit, Bio-Rad, Hercules, CA, USA) as previously described.
compound,measurement,setting,value
NC(=O)c1nc(F)c[nH]c1=O [favipiravir],Clinical response,"HuNoV [1]; P3 (CID), favipiravir monotherapy","Weight gain, reduced stool output, improved enteral feeding"
same,Patient weight after treatment,"HuNoV [1]; P3, second course up to 12-hourly 800 mg, four months, from 28.9 kg",33.3 kg
same,Stool HuNoV viral load,"HuNoV [2]; P3, favipiravir 12-hourly 1200 mg, before treatment max Ct 21.2",30.9 Ct
same,Stool HuNoV viral load,"HuNoV [2]; P4, favipiravir 400 mg 8-hourly + nitazoxanide 200 mg 12-hourly, max Ct, before treatment max Ct 17.9",27.8 Ct
same,Toxicity in the zebrafish larval model,zebrafish larvae,did not show toxicity
same,Favipiravir plasma trough level,"[3]; P1, 200 mg TDS (8-hourly, 51 mg/kg/day), average at month four",10.0 µg/mL
same,Favipiravir plasma trough level,"[3]; P1, 400 mg TDS (8-hourly, 97 mg/kg/day)",154 µg/mL and 154.0 µg/mL
same,Favipiravir plasma trough level,"[3]; P4, 400 mg TDS (8-hourly, 67 mg/kg/day)",159 µg/mL and 159.0 µg/mL
same,Clinical response,HuNoV [4],"Weight gain, reduced stool output, decreased adjunctive loperamide"
same,Favipiravir-associated viral sequence changes,"HuNoV [5]; P1, P2 and P4, coinciding with periods of favipiravir treatment, reducing after cessation",accumulation of A to G and T to C sequence changes
same,Favipiravir-associated viral sequence changes,"HuNoV [5]; P3, six samples",without evidence of accumulation of A to G and T to C favipiravir-associated sequence changes
same,Reduction in viral RNA copies/zebrafish,"HuNoV GII.4 Sydney[P16]; favipiravir 25 ng single pericardial injection, inoculum P1 pre-treatment SS A, day 3 pi (peak), p = 0.0263",1.6 log10
same,Reduction in viral load with post-treatment sample,HuNoV GII.4 Sydney[P16],no reduction in viral load
same,Reduction in viral load with post-treatment sample,HuNoV GII.4 Sydney[P16]; listed as Favipiravir,cannot reduce
same,Reduction of HuNoV replication,"HuNoV GII.4 Sydney[P16]; monotherapy favipiravir 25 ng or tizoxanide 4 ng, in-house GII.4 Sydney[P16] stool sample, peak 2 dpi, p = 0.0006 and 0.001",> 1 log10
